Laboratory results as given in US10813891B2, “Method of inhibiting chronification of pain” (priority 2011, dated 2020).
Several values for one entry are separate records, joined by “and”; a condition that tells them apart may be missing. Equal values may be shown once.

System: male albino rats (Sprague Dawley) with paw incision
Assay: Paw incision model for postoperative pain (electronic von Frey, tactile withdrawal threshold)
Type: in vivo, rat
From the text: Post operative, incisional pain is a common form of persistent, acute pain. Brennan et al. (Brennan T J, Vandermeulen E P, and Gebhart G F. Characterization of a rat model of incisional pain. Pain 1996; 64:493-501) developed a post operative model in rats with surgical intervention on the plantar surface of the hind foot for the evaluation of novel analgesic therapeutics. A surgical incision of the rat foot causes a reliable and quantifiable tactile hypersensitivity during the initial post operative period and lasting for several days after surgery. This model may thus be useful for predicting analgesia by investigational agents for post operative pain.
The experiments were carried out in male albino rats (Sprague Dawley) with 170 g-230 g body weight from a commercial breeder (Charles River, Germany). Surgery was performed as previously described. Brennan et al. (Brennan T J, Vandermeulen E P, and Gebhart G F. Characterization of a rat model of incisional pain. Pain 1996; 64:493-501). Briefly, rats were anaesthetised with isoflurane, and a 1 cm longitudinal incision was made, through skin and fascia of the plantar aspect of the foot, starting from the proximal edge of the heel and extending toward the metatarsal toes. The plantaris muscle was elevated and incised longitudinally. The muscle origin and insertion remained intact. After spreading of the muscle and haemostasis with gentle pressure, the skin was closed with two single interrupted sutures. After surgery, the rats were allowed to recover in their home cages and the animals regained consciousness within 2 to 5 minutes. In order to ensure a complete recovery from anaesthesia the baseline value of each individual animal was recorded not until 2 hours after surgery.
The rats were placed in a plastic cage with a wire mesh bottom which allowed full access to the paws. Hind paw withdrawal threshold after mechanical stimulation was tested with electronic von Frey hairs (Somedic Sales AB, Hörby, Sweden). Ten rats were used per experimental group. Animals were placed in a plastic cage with a wire mesh bottom which allowed full access to the paws. Behavioral accommodation was allowed for 30 min. In each case, withdrawal response was measured at an area adjacent to the wound (ipsilateral) and to the same area on the non-injured foot (contralateral). Two hours after surgery, primary hypersensitivity was tested as tactile withdrawal threshold (tactile hyperalgesia) shortly before drug administration and at different time points after drug application. Animals injected with vehicle served as controls. The pretest measurement was made prior to surgery and two thresholds were taken per test and averaged. Ten rats were used per experimental group. Tactile withdrawal threshold was measured pre and after substance administration from day 1 to day 5 post surgery. From day 6 to day 13 post surgery the withdrawal threshold was measured without substance administration (wash out phase). The efficacy was expressed as MPE %=% of maximal possible effect, whereas MPE is defined as 100% reversal of tactile hyperalgesia compared to vehicle group.
Tapentadol at the dose of 14.7 mg/kg intraperitoneal route (i.p.) was adminstered twice daily (BID) (7 a.m./7 p.m.) throughout day 1 to day 5. The first administration was given 20 min before surgery on day 1. From day 6 to day 13 no substance was given (wash out phase) The study scheme is schematically illustrated in FIG. 1.

## CC[C@@H](c1cccc(O)c1)[C@@H](C)CN(C)C [Tapentadol, (−)-(1R,2R)-3-(3-dimethylamino-1-ethyl-2-methyl-propyl)-phenol]
14.7 mg/kg i.p. BID day 1-5, washout day 6-13
  effect on sustained tactile hyperalgesia following surgical lesion: outlasts treatment duration
14.7 mg/kg i.p. BID day 1-5, d 2_0.5 h (0.5 h after treatment on day 2 after surgery)
  MPE % (reversal of tactile hyperalgesia): 38.3±5.48% and 38.3 ± 4.58 %
14.7 mg/kg i.p. BID, d 3-0.5 h
  MPE % (reversal of tactile hyperalgesia): 36.8 ± 2.41 %
14.7 mg/kg i.p. BID, d 4-0.5 h
  MPE % (reversal of tactile hyperalgesia): 34.5 ± 3.27 %
14.7 mg/kg i.p. BID, d 5-0.5 h (last day of treatment)
  MPE % (reversal of tactile hyperalgesia): 22.8 ± 5.29 %
14.7 mg/kg i.p. BID, d 5-0.5 h (last day of treatment), listed as tapentadol
  MPE % (reversal of tactile hyperalgesia): 22.8±5.29%
14.7 mg/kg i.p. BID, pre-d 3 (before administration, day 3)
  MPE % (reversal of tactile hyperalgesia): −0.6 ± 2.21 n.s. %
14.7 mg/kg i.p. BID, pre-d 4
  MPE % (reversal of tactile hyperalgesia): −6.00 ± 1.63 %
14.7 mg/kg i.p. BID, pre-d 5
  MPE % (reversal of tactile hyperalgesia): −6.60 ± 1.67 %
After 7 days of washout
  remaining efficacy as % of the efficacy after substance treatment on day 5: 39%
Day 9 (washout)
  remaining efficacy as % of the efficacy after substance treatment on day 5: 74%
pre-d 8, washout phase (third day of washout) after 14.7 mg/kg i.p. BID day 1-5
  MPE % (reversal of tactile hyperalgesia): 2.60 ± 2.51 n.s. %
pre-d 8, washout phase (third day of washout) after 14.7 mg/kg i.p. BID day 1-5, listed as tapentadol
  MPE % (reversal of tactile hyperalgesia): 3%
pre-d 10, washout phase after 14.7 mg/kg i.p. BID day 1-5
  MPE % (reversal of tactile hyperalgesia): 11.4 ± 3.21 %
pre-d 11, washout phase after 14.7 mg/kg i.p. BID day 1-5
  MPE % (reversal of tactile hyperalgesia): 8.90 ± 2.59 %
pre_d 9, washout phase after 14.7 mg/kg i.p. BID day 1-5
  MPE % (reversal of tactile hyperalgesia): 17.2 ± 3.43 %
pre_d 9, washout phase after 14.7 mg/kg i.p. BID day 1-5, listed as tapentadol
  MPE % (reversal of tactile hyperalgesia): 17%
pre_d 12, washout phase (7 days of washout) after 14.7 mg/kg i.p. BID day 1-5
  MPE % (reversal of tactile hyperalgesia): 8.60 ± 3.94 %
pre_d 12, washout phase (7 days of washout) after 14.7 mg/kg i.p. BID day 1-5, listed as tapentadol
  MPE % (reversal of tactile hyperalgesia): 9%
